From US12233114B2, “Method for treating diabetes” (Novo Nordisk A/S, priority 2016, dated 2025)

Tests used:
[1] = tested on: adult human subjects with type 2 diabetes that were at high risk for cardiovascular events; assay: Cardiovascular outcomes trial (DEVOTE): insulin degludec vs insulin glargine, time to first MACE; assay type: in vivo; conditions: for Hazard Ratio (95% CI), time to first MACE: insulin degludec vs insulin glargine
Text: This trial concerned incidence of cardiovascular events in adult human subjects with type 2 diabetes that were at high risk for cardiovascular events, including such subjects with existing cardiovascular disease. The primary objective of this trial was to confirm the cardiovascular safety of insulin degludec (Tresiba®) compared to that of insulin glargine (Lantus®). The secondary objective was to assess efficacy of insulin degludec on markers of glycaemic control and to assess safety on other parameters in subjects with type 2 diabetes that were at high risk for cardiovascular events.
An 18-month recruitment period was planned. […] Subjects were randomised 1:1 in a double-blinded manner to receive blinded insulin degludec or blinded insulin glargine, each added to standard of care. Subjects continued their current antidiabetic therapy except for the basal insulin component (if any), which was replaced by the investigational product. Treatment with bolus insulin was allowed.
Subjects not currently on insulin were to initiate basal insulin at a dose of 10 units OD given between dinner and bedtime. Subjects receiving basal insulin OD were to transfer unit-to-unit from their previous basal insulin dose. Subjects receiving twice-daily (or more) basal insulin transferred to an OD regimen and the pre-trial total basal insulin dose was reduced by 20-30% in accordance with the label for insulin glargine. For subjects receiving premixed/biphasic insulin OD, the basal component was calculated and transferred unit-to-unit to investigational product OD. The bolus insulin component was calculated and transferred unit-to-unit to bolus insulin and given at the most appropriate meal at the investigator's discretion. For subjects receiving premixed/biphasic insulin twice daily (or more), the total basal component was calculated, reduced by 20-30% and transferred to investigational product OD; the bolus component was to be calculated and transferred to insulin aspart and dosed with the most appropriate meals at the investigator's discretion. Subjects treated with bolus insulin as part of their current insulin regimen could be transferred to insulin aspart unit-to-unit from their previous bolus insulin dose, at the investigator's discretion.
Subjects adjusted their basal insulin dose weekly, aiming for a pre-breakfast (fasting) SMPG value of 71-90 mg/dL (4.0-5.0 mmol/L) by using the algorithm in Table 6. The basal dose was adjusted based on the lowest of three pre-breakfast SMPG values, preferably measured two days prior to dose adjustment and on the day of the dose adjustment. No maximum dose was specified. The investigators were to guide the subjects in adjusting their insulin at clinic visits and phone contacts. Investigators and subjects were recommended to follow the basal insulin titration algorithm. Importantly, however, the decision of adjustment of insulin doses was to be based on all available information, such as symptoms of hypoglycaemia and hyperglycaemia, previous responses to dose adjustments and SMPG values other than those required as per protocol.
Intensification with bolus insulin and other antidiabetic treatments was allowed during the course of the trial. The starting dose of bolus insulin was 4 units per relevant meal. […] Titration of bolus insulin could also be done based on carbohydrate counting. This was to be done at the investigator's discretion.
Subjects received insulin degludec or insulin glargine by subcutaneous administrations once daily in addition to the subject's standard treatment. Basal insulin was injected in the thigh, the upper arm (deltoid area) or the abdominal wall. The formulations were administered in the form of an aqueous solution comprising insulin degludec or insulin glargine, using identical 100 units/mL, 10-mL vials and 1-mL syringes.
The results of this trial may be presented herein as a number or fraction of subjects experiencing an event.

[2] = tested on: human subjects with T2DM inadequately controlled on insulin glargine in combination with metformin; assay: Example 3: 26-week open-label trial, IDegLira vs IGlar, both in combination with metformin; assay type: in vivo; conditions: 26 weeks of treatment
Description: A 26-week multinational, multi-centre, open-label, two-arm parallel, randomised, treat-to-target trial in 557 human subjects with T2DM inadequately controlled on insulin glargine (IGlar, Lantus®) at a daily dose between 20-50 units (both inclusive) in combination with metformin was carried out. The primary objective was to confirm the efficacy of IDegLira in controlling glycaemia in human subjects with T2DM on previous treatment with IGlar. The secondary objective was to compare safety of IDegLira to IGlar after 26 weeks of treatment and to confirm superiority of IDegLira versus IGlar after 26 weeks of treatment on one or more of the following: change from baseline in HbA1c, confirmed hypoglycaemia, change from baseline in body weight.
IGlar was given at a start dose equal to the pre-trial daily dose of IGlar (dose-to-dose switch) and was titrated according to a predefined titration algorithm with no maximum dose.
The trial included a screening visit to assess subjects' eligibility and weekly visits/phone contacts during the 26-week treatment period.
Subjects randomised to treatment with IDegLira discontinued the pre-trial IGlar treatment prior to initiating IDegLira treatment with a start dose of 16 dose steps, equivalent to 16 units insulin degludec and 0.6 mg liraglutide. […] Subjects randomised for treatment with IGlar […] on the pre-trial, stable IGlar treatment prior to initiating IGlar treatment with a start dose of IGlar equal to the pretrial daily dose (dose-to-dose switch). No predefined maximum dose was specified for IGlar treatment.
Subjects received IDegLira or IGlar by subcutaneous administration once daily in addition to metformin. […] IGlar was to be injected according to the approved label and using the pre-trial dosing time and injection site throughout the trial.

[3] = tested on: human subjects with type 2 diabetes inadequately controlled with basal insulin and metformin; assay: Example 2: 26-week double-blind trial, IDegLira vs IDeg, both added on to metformin; conditions: 26 weeks of treatment
Description: (§1) A 26-week randomised, parallel two-arm, double-blind, multi-centre, multinational, treat-to-target trial in 413 human subjects with type 2 diabetes inadequately controlled with basal insulin and metformin with or without SU or glinides was carried out comparing the efficacy and safety of insulin degludec+liraglutide (Xultophy®, IDegLira) once daily with insulin degludec (Tresiba®, IDeg) once daily both added on to metformin. […] The secondary objective was to compare the overall efficacy and safety parameters of IDegLira and IDeg after 26 weeks of treatment. All trial endpoints were collected and assessed throughout the entire duration of the trial.
(§2) Eligible subjects were randomised 1:1 to either once daily IDegLira or once daily IDeg, both in combination with metformin. […] For each subject, the duration of the trial was to be approximately 29 weeks: up to 2 weeks between screening and first treatment, 26 weeks of treatment and at least 1 week of wash-out at the end of the trial.
(§3) The IDegLira dosing unit is defined as a dose step. One (1) IDegLira dose step consists of 1 unit insulin degludec and 0.036 mg liraglutide. Treatment with IDegLira was initiated at 16 dose steps containing 16 units insulin degludec and 0.6 mg liraglutide. Adjustment of the IDegLira dose was performed twice weekly based on the mean of 3 preceding daily fasting SMPG values on 3 consecutive days. Adjustments occurred in 2 dose steps aiming at a fasting glycaemic target of 4.0-5.0 mmol/L (72-90 mg/dL). The maximum allowed dose was 50 dose steps (50 units IDeg/1.8 mg liraglutide). IDeg treatment was initiated with 16 units, and titrated twice weekly to the fasting glycaemic target of 4.0-5.0 mmol/L (72-90 mg/dL) based on the mean fasting SMPG from 3 proceeding measurements as described for IDegLira. The maximum allowed dose was 50 units.
(§4) Subjects received IDegLira or IDeg by subcutaneous administration in addition to metformin. IDegLira or IDeg was injected subcutaneously in the thigh, upper arm (deltoid region) or abdomen once daily preferably at the same time every day. The injection area chosen were to remain unchanged throughout the trial, but rotation within the area was recommended.

[4] = tested on: adult human subjects with type 2 diabetes that were at high risk for cardiovascular events; assay: CV risk score model and subgroup analysis of MACE based on the DEVOTE trial; assay type: in vivo; design: key to Estimate (risk of MACE with IDeg compared to IGlar): hazard ratio of MACE, IDeg vs IGlar; conditions: for Estimated hazard ratio (HR) for MACE by CV risk score: IDeg/IGlar
Text: Based on the DEVOTE trial, a cardiovascular (CV) risk score has been developed for individuals with established cardiovascular risk. This risk score was developed using available medical history, baseline information and cardiovascular events occurring during the trial. […] The variables are listed in descending order according to their impact on the overall risk of major adverse cardiovascular events (MACE), here consisting of cardiovascular death, non-fatal myocardial infarction, or non-fatal stroke. The combination of these variables yields an algorithm that can be used to determine the risk of future MACEs and to determine the benefit of being treated with IDeg compared to IGlar.
The CV risk score and estimated MACE hazard ratio for CV risk scores by quartiles based on number of events are presented in FIG. 1. […] This benefit is seen regardless of which of the individual predictors contribute to the high score.
For example, subjects with a BMI ≥30 kg/m^2 and diastolic blood pressure ≥80 mmHg, and subjects with a diastolic blood pressure ≥80 mmHg who were treated with statins would have a benefit with IDeg compared to IGlar in terms of risk of MACE (Table 11).

[5] = tested on: human subjects with type 2 diabetes inadequately controlled with basal insulin and metformin; conditions: in vivo
Description: as §1, §2, §3, §4

IGlar: Insulin glargine (Lantus®), commercially available basal insulin, active comparator
n, number of subjects with a first MACE ([1]; all subjects): 356
proportion of subjects with a first MACE ([1]; all subjects): 9.3%
n, number of subjects with a first MACE ([1]; subgroup Africa): 18
proportion of subjects with a first MACE ([1]; subgroup Africa): 14.4%
n, number of subjects with a first MACE ([1]; subgroup Asia): 31
proportion of subjects with a first MACE ([1]; subgroup Asia): 9.4%
n, number of subjects with a first MACE ([1]; subgroup Female): 131
proportion of subjects with a first MACE ([1]; subgroup Female): 9.1%
n, number of subjects with a first MACE ([1]; subgroup Male): 225
proportion of subjects with a first MACE ([1]; subgroup Male): 9.5%
Mean body weight increase [2]: 1.8 kg
proportion of subjects experiencing confirmed hypoglycaemic episodes during the trial [2]: 49.1%
ΔDiastolic blood pressure (change from baseline) [2]: −1.4 mmHG
ΔHeart rate (change from baseline) [2]: −0.2 bpm
ΔSystolic blood pressure (change from baseline) [2]: −0.2 mmHG

N^εB29—(N^α—(HOOC(CH2)14CO)-γ-Glu) desB30 human insulin [IDeg]
n, number of subjects with a first MACE ([1]; all subjects): 325
proportion of subjects with a first MACE ([1]; all subjects): 8.5%
Hazard Ratio (95% CI), time to first MACE ([1]; all subjects, MACE = CV death, non-fatal MI, non-fatal stroke, Cox model): 0.91 (0.78;1.06)
n, number of subjects with a first MACE ([1]; subgroup Africa): 6
proportion of subjects with a first MACE ([1]; subgroup Africa): 4.6%
n, number of subjects with a first MACE ([1]; subgroup Asia): 13
proportion of subjects with a first MACE ([1]; subgroup Asia): 4.1%
n, number of subjects with a first MACE ([1]; subgroup Female): 99
proportion of subjects with a first MACE ([1]; subgroup Female): 7.0%
n, number of subjects with a first MACE ([1]; subgroup Male): 226
proportion of subjects with a first MACE ([1]; subgroup Male): 9.4%
Hazard Ratio (95% CI), time to first MACE ([1]; subgroup Region: Africa): 0.30 (0.12; 0.77)
Hazard Ratio (95% CI), time to first MACE ([1]; subgroup Region: Asia): 0.42 (0.22; 0.81)
Hazard Ratio (95% CI), time to first MACE ([1]; subgroup Sex: Female): 0.76 (0.59; 0.99)
Hazard Ratio (95% CI), time to first MACE ([1]; subgroup Sex: Male): 0.99 (0.83; 1.20)
ΔDiastolic blood pressure (change from baseline) [3]: −0.7 mmHG
ΔSystolic blood pressure (change from baseline) [3]: −1.7 mmHG
Estimated hazard ratio (HR) for MACE by CV risk score ([4]; CV risk score quartile High): 1.04
Estimated hazard ratio (HR) for MACE by CV risk score ([4]; CV risk score quartile Low): 1.02
Estimated hazard ratio (HR) for MACE by CV risk score ([4]; CV risk score quartile Moderate): 0.89
Estimated hazard ratio (HR) for MACE by CV risk score ([4]; CV risk score quartile Very High): 0.67
hazard ratio IDeg/IGlar, risk of MACE ([4]; patients who have a high CV risk score): < 1
Estimate (risk of MACE with IDeg compared to IGlar) ([4]; subgroup Age 65-75 years AND systolic blood pressure <140 mmHg): 0.70
Estimate (risk of MACE with IDeg compared to IGlar) ([4]; subgroup Age <65 years AND diastolic blood pressure ≥80 mmHg): 0.64
Estimate (risk of MACE with IDeg compared to IGlar) ([4]; subgroup Age <65 years AND treated with statins): 0.75
Estimate (risk of MACE with IDeg compared to IGlar) ([4]; subgroup BMI ≥30 kg/m^2 AND diastolic blood pressure ≥80 mmHg): 0.68
Estimate (risk of MACE with IDeg compared to IGlar) ([4]; subgroup Diastolic blood pressure <90 mmHg AND HDL ≥1.0 mmol/L): 0.80
Estimate (risk of MACE with IDeg compared to IGlar) ([4]; subgroup Diastolic blood pressure ≥80 mmHg AND treated with statins): 0.73
Estimate (risk of MACE with IDeg compared to IGlar) ([4]; subgroup Diastolic blood pressure ≥80 mmHg AND triglycerides >1.7 mmol/L): 0.69
Estimate (risk of MACE with IDeg compared to IGlar) ([4]; subgroup Established CV risk AND HDL ≥1.0 mmol/L): 0.78
Estimate (risk of MACE with IDeg compared to IGlar) ([4]; subgroup Established CV risk AND diastolic blood pressure ≥80 mmHg): 0.76
Estimate (risk of MACE with IDeg compared to IGlar) ([4]; subgroup Established CV risk AND pulse ≥70 bpm): 0.80
Estimate (risk of MACE with IDeg compared to IGlar) ([4]; subgroup Height <170 cm AND treated with statins): 0.75
Estimate (risk of MACE with IDeg compared to IGlar) ([4]; subgroup Non-White AND diastolic blood pressure <90 mmHg): 0.64
Estimate (risk of MACE with IDeg compared to IGlar) ([4]; subgroup Not Hispanic or Latino AND Non-White): 0.64
Estimate (risk of MACE with IDeg compared to IGlar) ([4]; subgroup Not Hispanic or Latino AND triglycerides >1.7 mmol/L): 0.79
Estimate (risk of MACE with IDeg compared to IGlar) ([4]; subgroup Previous smoker AND age <65 years): 0.73
Estimate (risk of MACE with IDeg compared to IGlar) ([4]; subgroup Previous smoker AND cholesterol ≥3 mmol/L): 0.79
Estimate (risk of MACE with IDeg compared to IGlar) ([4]; subgroup Previous smoker AND diastolic blood pressure ≥80 mmHg): 0.66
Estimate (risk of MACE with IDeg compared to IGlar) ([4]; subgroup Previous smoker AND treated with statins): 0.79
Estimate (risk of MACE with IDeg compared to IGlar) ([4]; subgroup Previous smoker AND triglycerides >1.7 mmol/L): 0.73
Estimate (risk of MACE with IDeg compared to IGlar) ([4]; subgroup Pulse ≥70 bpm AND diastolic blood pressure ≥80 mmHg): 0.74
Estimate (risk of MACE with IDeg compared to IGlar) ([4]; subgroup Pulse ≥70 bpm AND triglycerides >1.7 mmol/L): 0.76
Estimate (risk of MACE with IDeg compared to IGlar) ([4]; subgroup Pulse ≥70 mmHg AND treated with statins): 0.72
Estimate (risk of MACE with IDeg compared to IGlar) ([4]; subgroup Systolic blood pressure <140 mmHg AND HDL ≥1.0 mmol/L): 0.73
Estimate (risk of MACE with IDeg compared to IGlar) ([4]; subgroup Triglycerides >1.7 mmol/L AND HDL ≥1.0 mmol/L): 0.69
Estimate (risk of MACE with IDeg compared to IGlar) ([4]; subgroup Triglycerides >1.7 mmol/L AND treated with statins): 0.78
Adverse event and tolerability profiles [5]: consistent with previous findings
ΔHeart rate (change from baseline) [5]: −0.6 bpm
